Read-outs that look alike come from different tables or passages of the source. Peptide text beside a SMILES is read from it.
Assays:
Assay type in all cases: cell-based
[1] = target: T1, GPR1 (Homo sapiens, UniProt P46091); assay: PathHunter β-Arrestin assay, GPR1, agonist and antagonist mode; details: for agonist activity, in words / Rank Order / % Max Activity / % Max Inhibition / antagonist activity, in words: GPR1; for agonist activity, in words: FIG. 2A/2B; for Rank Order: agonist; for % Max Activity: agonist mode; for % Max Inhibition: antagonist mode, chemerin at EC80; for antagonist activity, in words: chemerin at 80% maximum signal
T1 construct: host or cells: CHO
T1 sequence (P46091 1-355): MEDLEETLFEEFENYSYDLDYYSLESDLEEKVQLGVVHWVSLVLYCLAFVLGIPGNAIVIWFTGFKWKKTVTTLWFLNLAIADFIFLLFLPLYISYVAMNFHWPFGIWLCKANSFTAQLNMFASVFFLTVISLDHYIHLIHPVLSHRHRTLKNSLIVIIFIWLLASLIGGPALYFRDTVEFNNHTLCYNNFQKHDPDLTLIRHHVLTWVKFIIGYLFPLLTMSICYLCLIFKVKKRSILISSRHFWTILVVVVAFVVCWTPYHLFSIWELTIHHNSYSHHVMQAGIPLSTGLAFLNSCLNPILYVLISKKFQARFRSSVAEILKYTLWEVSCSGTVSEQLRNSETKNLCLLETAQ
Description: (§1) The DiscoveRx PathHunter™ eXpress GPCR activity assay was employed to test agonist and antagonist activities of the chemerin peptides against the GPCRs ChemR23 and GPR1. Two assay formats were tested, the PathHunter β-Arrestin assay and the Hit Hunter cAMP Hunter assay.
(§2) The PathHunter β-Arrestin assay monitors the activation of a GPCR in a homogenous, non-imaging assay format using a technology developed by DiscoveRx called complementation, which utilizes an enzyme fragment complementation (EFC) assay with β-galactosidase (β-Gal) as the functional reporter. The enzyme is split into two complementary portions expressed as fusion proteins in the cell. The Enzyme Acceptor (EA) is fused to β-Arrestin and the ProLink donor peptide is fused to the GPCR of interest. Upon GPCR stimulation, β-Arrestin is recruited to the receptor for desensitization, bringing the two fragments of β-Gal together and allowing complementation to occur.
(§3) The assay involves CHO cell lines that express 1) a GPCR of interest (e.g. ChemR23 or GPR1) that has a fragment of the βgal enzyme fused to the C-terminus of the receptor and 2) a β-arrestin fused to the main β-gal enzyme. When the agonist binds to the receptor, β-arrestin is recruited to the receptor and the β-gal enzyme is complemented by the fragment from the GPCR thus forming a functional β-gal enzyme. A substrate is then added and luminescence is generated to detect β-arrestin recruitment.
(§4) The protocol used was a standard protocol employed by DiscoveRx PathHunter™ profiling service. […] Once it was established that the cells were healthy and growing normally, cells were passaged from flasks using cell dissociation reagent and seeded into white walled clear bottom 384-well microplates for compound profiling. For profiling, cells were seeded at a density of 5000 cells per well in a total volume of 20 μL and were allowed to adhere and recover overnight prior to compound addition.
(§5) For the agonist assay, intermediate dilution of compound stocks were generated such that 5 μL of 5× compound could be added to each well with a final DMSO concentration of 1% of total volume. For profiling compound in agonist mode, the cells were incubated in the presence of compound at 37° C. for 90 minutes.
(§6) For the antagonist assay, agonist dose curves were performed the morning of profiling to determine the EC80 value for the following antagonist testing with compounds. 5 μL of 5× agonist (i.e. chemerin) was added to each well with an equal concentration of vehicle present. EC80 agonist concentration was determined directly from agonist dose curve. For antagonist determination, cells were preincubated with antagonist followed by agonist challenge at the EC80 concentration: 4. 5 μL of 5× compound added to cells and incubated at 37° C. for 30 minutes. 5. 5 μL of 6× EC80 agonist added to cells and incubated at 37° C. for 90 minutes.
(§7) Microplates were read following signal generation with a PerkinElmer Envision™ instrument for chemiluminescent signal detection
(§8) Dose curves in the presence and absence of compound were plotted using GraphPad Prism or Activity Base. For agonist mode assays, percentage activity was calculated using the following formula: % Activity=100%×(Mean RLU of test sample−mean RLU of vehicle control)/(mean MAX RLU control ligand−mean RLU of vehicle control)). For antagonist mode assays, percentage inhibition was calculated using the following formula: % Inhibition=100%×(1−(Mean RLU of test sample−mean RLU of vehicle control)/(mean RLU of EC80 control−mean RLU of vehicle control)).

[2] = target: T2, ChemR23 (CMKLR1) (Homo sapiens, UniProt Q99788); assay: PathHunter β-Arrestin assay, ChemR23 (CMKLR1), agonist and antagonist mode; details: for Rank Order / % Max Activity / % Max Inhibition: ChemR23; for Rank Order: agonist; for % Max Activity: agonist mode; for % Max Inhibition: antagonist mode, chemerin at EC80; for agonist activity, in words / antagonist activity, in words: human ChemR23; for agonist activity, in words: FIG. 2A/2B; for antagonist activity, in words: chemerin at 80% maximum signal
T2 construct: host or cells: CHO
T2 sequence (Q99788 1-373): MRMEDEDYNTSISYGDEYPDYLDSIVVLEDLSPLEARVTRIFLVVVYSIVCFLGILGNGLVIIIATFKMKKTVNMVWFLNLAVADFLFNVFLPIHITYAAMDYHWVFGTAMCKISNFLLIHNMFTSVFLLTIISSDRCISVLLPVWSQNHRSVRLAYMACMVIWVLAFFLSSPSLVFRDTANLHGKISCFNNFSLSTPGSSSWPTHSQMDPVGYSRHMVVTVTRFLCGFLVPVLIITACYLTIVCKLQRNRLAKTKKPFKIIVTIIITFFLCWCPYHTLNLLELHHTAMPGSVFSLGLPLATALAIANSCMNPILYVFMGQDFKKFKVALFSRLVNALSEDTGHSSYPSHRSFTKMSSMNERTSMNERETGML
Description: as §1, §2, §3, §4, §5, §6, §7, §8

[3] = target: T3, ChemR23 (Homo sapiens, UniProt Q99788); assay: Hit Hunter cAMP Hunter assay, human ChemR23
T3 sequence (Q99788 1-373): T2 sequence (Q99788 1-373)
Description: as §1
as §4, with “reagent buffer” for “reagent”, “10000” for “5000”, “addition. Cells were treated the following day using the protocols shown below. cAMP modulation was determined using the DiscoveRx HitHunter cAMP XS+ assay.” for “addition.”
For profiling compound in agonist mode, the cells were incubated in the presence of compound at 37° C. for 30 minutes.
EC80 agonist concentration was determined directly from agonist dose curve.
Microplates were read following signal generation with a PerkinElmer Envision™ instrument for chemiluminescent signal detection.
Dose curves in the presence and absence of compound were plotted using GraphPad Prism or Activity Base.

| SMILES | IC50 [1] [µM] | agonist activity, in words [1] | Rank Order [1] | % Max Activity [1] [%] | % Max Inhibition [1] [%] | antagonist activity, in words [1] | EC50 [2] [µM] | IC50 [2] [µM] | Rank Order [2] | % Max Activity [2] [%] | % Max Inhibition [2] [%] | agonist activity, in words [2] | antagonist activity, in words [2] | IC50 [3] [µM] | EC50 ([2]; read-out: RC50 (uM), EC50, Arrestin, Agonist, AssayTarget ChemR23) [µM] |
| --- | --- | --- | --- | --- | --- | --- | --- | --- | --- | --- | --- | --- | --- | --- | --- |
| C[C@H](N)C(=O)NCC(=O)N[C@@H](CCC(=O)O)C(=O)N[C@@H](CC(=O)O)C(=O)N1CCC[C@H]1C(=O)N[C@@H](Cc1c[nH]cn1)C(=O)N[C@@H](CO)C(=O)N[C@@H](Cc1ccccc1)C(=O)N[C@@H](Cc1ccc(O)cc1)C(=O)N[C@@H](Cc1ccccc1)C(=O)N1CCC[C@H]1C(=O)NCC(=O)N[C@@H](CCC(N)=O)C(=O)N[C@@H](Cc1ccccc1)C(=O)N[C@@H](C)C(=O)O [C15 (human)] (H-AGEDPHSFYFPGQFA-OH; N-terminus and C-terminus assumed) | > 10 | neither human nor mouse chemerin C15 peptides acted as agonists | 3 | 10.6 | 0 | neither human nor mouse chemerin C15 peptides acted as antagonists | > 10 | > 10 | 3 | 0.8 | 0 | neither human nor mouse chemerin C15 peptides acted as agonists | neither human nor mouse chemerin C15 peptides acted as antagonists | > 10 |  |
| C[C@H](N)C(=O)NCC(=O)N[C@@H](CCC(=O)O)C(=O)N[C@@H](CC(=O)O)C(=O)N1CCC[C@H]1C(=O)N[C@@H](Cc1c[nH]cn1)C(=O)N[C@@H](CO)C(=O)N[C@@H](Cc1ccccc1)C(=O)N[C@@H](Cc1ccc(O)cc1)C(=O)N[C@@H](Cc1ccccc1)C(=O)N1CCC[C@H]1C(=O)NCC(=O)N[C@@H](CCC(N)=O)C(=O)N[C@@H](Cc1ccccc1)C(=O)N[C@@H](C)C(=O)N[C@@H](Cc1ccccc1)C(=O)N[C@@H](CO)C(=O)O [C17 (human)] (H-AGEDPHSFYFPGQFAFS-OH; N-terminus and C-terminus assumed) | > 10 | exhibited agonist activity | 1 | 80.9 | 0 |  |  | > 10 | 2 | 67.5 | 0 | exhibited agonist activity |  | > 10 |  |
| CC(C)C[C@H](NC(=O)[C@H](Cc1ccccc1)NC(=O)[C@H](Cc1ccc(O)cc1)NC(=O)CNC(=O)[C@H](Cc1c[nH]cn1)NC(=O)[C@@H]1CCCN1C(=O)[C@H](CC(=O)O)NC(=O)[C@H](CCC(=O)O)NC(=O)CNC(=O)[C@H](C)N)C(=O)N1CCC[C@H]1C(=O)NCC(=O)N[C@@H](CCC(N)=O)C(=O)N[C@@H](Cc1ccccc1)C(=O)N[C@@H](C)C(=O)O [mC15] (H-AGEDPHGYFLPGQFA-OH; N-terminus and C-terminus assumed) | > 10 | neither human nor mouse chemerin C15 peptides acted as agonists | 4 | 27.8 | 0 | neither human nor mouse chemerin C15 peptides acted as antagonists | > 10 | > 10 | 3 | 0.4 | 0 | neither human nor mouse chemerin C15 peptides acted as agonists | neither human nor mouse chemerin C15 peptides acted as antagonists | > 10 | > 10 |

Reference: US20140349943A1, “TOPICAL FORMULATIONS OF CHEMERIN C15 PEPTIDES FOR THE TREATMENT OF DERMATOLOGICAL CONDITIONS” (priority 2011, published 2014)
